Legend:
[1] = test system: COMT; assay: COMT activity (methylation of adrenaline to metanephrine) in rat brain homogenates; assay type: biochemical; settings: rat brain homogenate; test compound 100 nM; means±SEM, n=4-8
[2] = target: T1, COMT (Homo sapiens, UniProt P21964); assay: COMT activity in intact SK-N-SH cell monolayers; assay type: cell-based; settings: SK-N-SH cells; test compound 100 nM; means±SEM, n=4-8
T1 construct: COMT activity was evaluated in cell monolayers by the ability to methylate adrenaline; host or cells: SK-N-SH cells
T1 sequence (P21964 1-271): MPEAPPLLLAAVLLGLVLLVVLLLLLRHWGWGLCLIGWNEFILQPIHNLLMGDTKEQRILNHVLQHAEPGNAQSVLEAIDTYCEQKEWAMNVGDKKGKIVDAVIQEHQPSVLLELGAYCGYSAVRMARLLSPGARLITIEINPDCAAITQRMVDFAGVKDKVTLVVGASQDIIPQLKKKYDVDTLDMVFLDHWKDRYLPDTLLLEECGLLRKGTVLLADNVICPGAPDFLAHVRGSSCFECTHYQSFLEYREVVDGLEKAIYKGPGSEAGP

[3] = test system: COMT; assay: COMT activity (methylation of adrenaline to metanephrine) in rat liver homogenates; assay type: biochemical; settings: rat liver homogenate; test compound 3 μM; means±SEM, n=4-8

O=C1CCCc2cc(O)c(O)c([N+](=O)[O-])c21 [Compound 1, 6,7-Dihydroxy-8-nitro-3,4-dihydro-2H-naphthalen-1-one]
COMT activity, Brain (% of control) [1]: 15 ± 4 % of control | COMT activity, SK-N-SH (% of control) [2]: 46 ± 1 % of control | COMT activity, Liver (% of control) [3]: 1.2 ± 0.2 % of control

O=C1CCc2cc(O)c(O)c([N+](=O)[O-])c21 [Compound 2, 5,6-Dihydroxy-7-nitro-indan-1-one]
COMT activity, Brain (% of control) [1]: 9 ± 1 % of control | COMT activity, SK-N-SH (% of control) [2]: 24 ± 1 % of control | COMT activity, Liver (% of control) [3]: 1.3 ± 0.7 % of control

COc1ccc(C=C2CCc3cc(O)c(O)c([N+](=O)[O-])c3C2=O)cc1OC [Compound 4, 2-(3,4-Dimethoxy-benzylidene)-6,7-dihydroxy-8-nitro-3,4-dihydro-2H-naphthalen-1-one]
COMT activity, Brain (% of control) [1]: 20 ± 2 % of control | COMT activity, SK-N-SH (% of control) [2]: 25 ± 1 % of control | COMT activity, Liver (% of control) [3]: 2.0 ± 1.0 % of control

O=[N+]([O-])c1c(O)c(O)cc2c1C(=NO)CC2 [Compound 6, 5,6-Dihydroxy-7-nitro-indan-1-one Oxime]
COMT activity, Brain (% of control) [1]: 33 ± 1 % of control | COMT activity, SK-N-SH (% of control) [2]: 39 ± 3 % of control | COMT activity, Liver (% of control) [3]: 1.77 ± 0.1 % of control

COc1ccc(C=C2Cc3cc(O)c(O)c([N+](=O)[O-])c3C2=O)cc1OC [Compound 7, 2-(3,4-Dimethoxy-benzylidene)-5,6-dihydroxy-7-nitro-indan-1-one]
COMT activity, Brain (% of control) [1]: 14 ± 1 % of control | COMT activity, SK-N-SH (% of control) [2]: 23 ± 1 % of control | COMT activity, Liver (% of control) [3]: 0.6 ± 0.3 % of control

CN(C)c1ccc(C=C2Cc3cc(O)c(O)c([N+](=O)[O-])c3C2=O)cc1 [Compound 8, 2-(4-dimethylamino-benzylidene)-5,6-dihydroxy-7-nitro-indan-1-one]
COMT activity, Brain (% of control) [1]: 30 ± 4 % of control | COMT activity, SK-N-SH (% of control) [2]: 48 ± 3 % of control | COMT activity, Liver (% of control) [3]: 1.0 ± 0.1 % of control

CN(C)c1ccc(C=C2CCc3cc(O)c(O)c([N+](=O)[O-])c3C2=O)cc1 [Compound 9, 2-(4-Dimethylamino-benzylidene)-6,7-dihydroxy-8-nitro-3,4-dihydro-2H-naphthalen-1-one]
COMT activity, Brain (% of control) [1]: 47 ± 5 % of control | COMT activity, SK-N-SH (% of control) [2]: 8 ± 1 % of control | COMT activity, Liver (% of control) [3]: 9.0 ± 1.6 % of control

COc1cc(C=C2Cc3cc(O)c(O)c([N+](=O)[O-])c3C2=O)cc([N+](=O)[O-])c1O [Compound 10, 5,6-Dihydroxy-2-(4-hydroxy-3-methoxy-5-nitro-benzylidene)-7-nitro-indan-1-one]
COMT activity, Brain (% of control) [1]: 14 ± 1 % of control | COMT activity, SK-N-SH (% of control) [2]: 24 ± 2 % of control | COMT activity, Liver (% of control) [3]: 0.3 ± 0.1 % of control

COc1cc(C=C2CCc3cc(O)c(O)c([N+](=O)[O-])c3C2=O)cc([N+](=O)[O-])c1O [Compound 11, 6,7-Dihydroxy-2-(4-hydroxy-3-methoxy-5-nitro-benzylidene)-8-nitro-3,4-dihydro-2H-naphthalen-1-one]
COMT activity, Brain (% of control) [1]: 32 ± 2 % of control | COMT activity, SK-N-SH (% of control) [2]: 47 ± 2 % of control | COMT activity, Liver (% of control) [3]: 1.1 ± 0.3 % of control

O=C1C(=Cc2ccc(O)c(O)c2)Cc2cc(O)c(O)c([N+](=O)[O-])c21 [Compound 12, 2-(3,4-dihydroxy-benzylidene)-5,6-dihydroxy-7-nitro-indan-1-one]
COMT activity, Brain (% of control) [1]: 18 ± 1 % of control | COMT activity, SK-N-SH (% of control) [2]: 34 ± 1 % of control | COMT activity, Liver (% of control) [3]: 0.6 ± 0.0 % of control

O=C1C(=Cc2ccc(O)c(O)c2)CCc2cc(O)c(O)c([N+](=O)[O-])c21 [Compound 13, 2-(3,4-Dihydroxy-benzylidene)-6,7-dihydroxy-8-nitro-3,4-dihydro-2H-naphthalen-1-one]
COMT activity, Brain (% of control) [1]: 27 ± 1 % of control | COMT activity, SK-N-SH (% of control) [2]: 46 ± 1 % of control | COMT activity, Liver (% of control) [3]: 2.3 ± 0.1 % of control

O=C(CCc1ccccc1)c1ccc(O)c(O)c1[N+](=O)[O-] [Compound 14, 1-(3,4-Dihydroxy-2-nitro-phenyl)-3-phenyl-propan-1-one]
COMT activity, Brain (% of control) [1]: 5 ± 1 % of control | COMT activity, SK-N-SH (% of control) [2]: 5 ± 2 % of control | COMT activity, Liver (% of control) [3]: 0.3 ± 0.0 % of control

O=C(CCCc1ccccc1)c1ccc(O)c(O)c1[N+](=O)[O-] [Compound 15, 1-(3,4-dihydroxy-2-nitro-phenyl)4-phenyl-butan-1-one]
COMT activity, Brain (% of control) [1]: 7 ± 2 % of control | COMT activity, SK-N-SH (% of control) [2]: 13 ± 4 % of control | COMT activity, Liver (% of control) [3]: 0.5 ± 0.0 % of control

O=C1C(=Cc2cc(O)c(O)c([N+](=O)[O-])c2)Cc2cc(O)c(O)c([N+](=O)[O-])c21 [Compound 16, 2-(3,4-Dihydroxy-5-nitro-benzylidene)-5,6-dihydroxy-7-nitro-indan-1-one]
COMT activity, Brain (% of control) [1]: 20 ± 1 % of control | COMT activity, SK-N-SH (% of control) [2]: 92 ± 1 % of control | COMT activity, Liver (% of control) [3]: 2.0 ± 0.2 % of control

CCCCC(=O)c1ccc(O)c(O)c1[N+](=O)[O-] [Compound 17, 1-(3,4-dihydroxy-2-nitro-phenyl)-pentan-1-one]
COMT activity, Brain (% of control) [1]: 8 ± 1 % of control | COMT activity, SK-N-SH (% of control) [2]: 24 ± 4 % of control | COMT activity, Liver (% of control) [3]: 0.4 ± 0.0 % of control

O=C1c2ccccc2C(=O)c2c1cc(O)c(O)c2[N+](=O)[O-] [Compound 18, 2,3-Dihydroxy-1-nitro-anthraquinone]
COMT activity, Brain (% of control) [1]: 17 ± 1 % of control | COMT activity, SK-N-SH (% of control) [2]: 70 ± 5 % of control | COMT activity, Liver (% of control) [3]: 2.0 ± 0.0 % of control

CCCC(=O)Oc1ccc(C(=O)CCc2ccccc2)c([N+](=O)[O-])c1OC(=O)CCC [Compound 19, Butyric acid, 6-butyryloxy-2-nitro-3-(3-phenyl-propionyl)-phenyl ester]
COMT activity, Brain (% of control) [1]: 8 ± 1 % of control | COMT activity, SK-N-SH (% of control) [2]: 0 ± 0 % of control | COMT activity, Liver (% of control) [3]: 0.2 ± 0.1 % of control

CCOC(=O)Oc1ccc(C(=O)c2ccccc2)c([N+](=O)[O-])c1OC(=O)OCC [Compound 21, Carbonic acid, 4-benzoyl-2-ethoxycarbonyloxy-3-nitro-phenyl ester ethyl ester]
COMT activity, Brain (% of control) [1]: 11 ± 1 % of control | COMT activity, SK-N-SH (% of control) [2]: 1 ± 1 % of control | COMT activity, Liver (% of control) [3]: 0.3 ± 0.2 % of control

CCOC(=O)Oc1ccc(C(=O)CCc2ccccc2)c([N+](=O)[O-])c1OC(=O)OCC [Compound 22, Carbonic acid, 2-ethoxycarbonyloxy-3-nitro-4-(3-phenyl-propionyl)-phenyl ester ethyl ester]
COMT activity, Brain (% of control) [1]: 9 ± 0 % of control | COMT activity, SK-N-SH (% of control) [2]: 12 ± 1 % of control | COMT activity, Liver (% of control) [3]: 0.3 ± 0.1 % of control

CCOC(=O)Oc1cc(C(=O)c2ccccc2)c(C(=O)c2ccccc2)c([N+](=O)[O-])c1OC(=O)OCC [Compound 23, Carbonic Acid 4,5-Dibenzoyl-2-ethoxycarbonyloxy-3-nitro-phenyl Ester Ethyl Ester]
COMT activity, Brain (% of control) [1]: 10 ± 1 % of control | COMT activity, SK-N-SH (% of control) [2]: 24 ± 1 % of control | COMT activity, Liver (% of control) [3]: 2.5 ± 1.2 % of control

CC(=O)Oc1cc2c(c([N+](=O)[O-])c1OC(C)=O)C(=O)C(C)(C)CC2 [Compound 25, Acetic Acid, 3-Acetoxy-7,7-dimethyl-1-nitro-8-oxo-5,6,7,8-tetrahydro-naphthalen-2-yl Ester]
COMT activity, Brain (% of control) [1]: 19 ± 1 % of control | COMT activity, SK-N-SH (% of control) [2]: 39 ± 1 % of control | COMT activity, Liver (% of control) [3]: 1.7 ± 0.1 % of control

O=C(CCN1CCOCC1)c1ccc(O)c(O)c1[N+](=O)[O-] [Compound 26, 1-(3,4-dihydroxy-2-nitro-phenyl)-3-morpholin4-yl-propan-1-one]
COMT activity, Brain (% of control) [1]: 9 ± 0 % of control | COMT activity, SK-N-SH (% of control) [2]: 12 ± 1 % of control | COMT activity, Liver (% of control) [3]: 0.9 ± 0.1 % of control

O=C(CCN1CCCCC1)c1ccc(O)c(O)c1[N+](=O)[O-] [Compound 27, 1-(3,4-Dihydroxy-2-nitro-phenyl)-3-piperidin-1-yl-propan-1-one]
COMT activity, Brain (% of control) [1]: 15 ± 1 % of control | COMT activity, SK-N-SH (% of control) [2]: 5 ± 1 % of control | COMT activity, Liver (% of control) [3]: 2.4 ± 0.2 % of control

O=C(CCN1CCCC1)c1ccc(O)c(O)c1[N+](=O)[O-] [Compound 28, 1-(3,4-Dihydroxy-2-nitro-phenyl)-3-pyrrolidin-1-yl-propan-1-one]
COMT activity, Brain (% of control) [1]: 14 ± 1 % of control | COMT activity, SK-N-SH (% of control) [2]: 7 ± 0 % of control | COMT activity, Liver (% of control) [3]: 2.2 ± 0.2 % of control

O=C1c2c(cc(O)c(O)c2[N+](=O)[O-])CC1CN1CCOCC1 (stereo not shown) [Compound 29, 5,6-Dihydroxy-2-morpholin-4-ylmethyl-7-nitro-indan-1-one]
COMT activity, Brain (% of control) [1]: 12 ± 1 % of control | COMT activity, SK-N-SH (% of control) [2]: 21 ± 1 % of control | COMT activity, Liver (% of control) [3]: 0.6 ± 0.0 % of control

CC(=O)OC(=Cc1ccccc1)c1ccc(OC(C)=O)c(OC(C)=O)c1[N+](=O)[O-] [Compound 46, Acetic Acid, 2-Acetoxy4-(I-acetoxy-2-phenyl-vinyl)-3-nitro-phenyl Ester]
COMT activity, SK-N-SH (% of control) [2]: 1 ± 1 % of control
